Experiments:
Human neural stem cells = assay: Neural stem cell proliferation under Aβ by EdU incorporation; assay type: cell-based; conditions: Aβ 5 μM pre-treatment 30 minutes, PL201 30 μM, 72 hours
Procedure: As the main pathogenic protein of AD, Aβ inhibits neural stem cell proliferation. In this example, the inventors detected the levels of human neural stem cell proliferation by EdU incorporation, and tested whether PL201 can alleviate the inhibition effect of Aβ on the proliferation of neural stem cells.
Human neural stem cells (3 L) were cultured in DMEM/F12 (containing N2/B27 and 10 ng/ml bFGF), plated to 96 well plates and incubated for 24 hours, then Aβ (5 μM) was added to pre-treat the cells for 30 minutes, and then PL201 (30 μM) was added. After co-incubation for 72 hours, the proliferation level of neural stem cells was detected by EdU staining.

[1] = test system: neuroblastoma cells SK-N-SH; assay: Total Aβ in supernatant of SK-N-SH cells by ELISA; assay type: cell-based; conditions: 30, 100, 300 μM, 24 hours
Procedure: Culture of neuroblastoma cells SK-N-SH and Aβ detection: SK-N-SH cells were cultured in DMEM, plated to 24 well plates and cultured for 24 hours, then PL201 (0, 30, 100, and 300 μM) was added. After co-incubation for 24 hours, the protein level of total Aβ in supernatant was detected by ELISA.
Culture of neuroblastoma cells SK-N-SH and Aβ detection: SK-N-SH cells were cultured in DMEM, plated to 24 well plates and cultured for 24 hours, then PL202 (0, 30, and 100 μM) was added. After co-incubation for 24 hours, protein level of total Aβ in supernatant was detected by ELISA.
Culture of neuroblastoma cells SK-N-SH and Aβ detection: SK-N-SH cells were cultured in DMEM, plated to 24 well plates and cultured for 24 hours, then PL171 (300 μM) was added. After co-incubation for 24 hours, protein level of total Aβ in supernatant was detected by ELISA.
Culture of neuroblastoma cells SK-N-SH and Aβ detection: SK-N-SH cells were cultured in DMEM, plated to 24 well plates and cultured for 24 hours, then PL172 (300 μM) was added. After co-incubation for 24 hours, protein level of total Aβ in supernatant was detected by ELISA.

[2] = test system: AMPK phosphorylation in human neural stem cells; assay: AMPK phosphorylation level by western blot; assay type: cell-based; conditions: Aβ 5 μM pre-treatment 30 minutes, PL201 30 PM, 72 hours
Procedure: The changes of mitochondrial function are closely related to the regulation of metabolism signaling including AMPK, which is also widely considered to be closely related to the pathogenesis of AD. In this example, the inventors have explored whether PL201 has an effect on metabolism signaling by detecting the level of AMPK phosphorylation in human neural stem cells via western blot.
Human neural stem cells (3 L) were cultured in DMEM/F12 (containing N2/B27 and 10 ng/ml bFGF), plated to 12 well plates and cultured for 24 hours, then Aβ (5 μM) was added to pre-treat the cells for 30 minutes, and then PL201 ([…]) was added. After co-incubation for 72 hours, the cells were washed with PBS and lysed with Laemmli's sample buffer, then SDS PAGE electrophoresis was performed to detect associated protein bands with rabbit anti-phospo-AMPK and total AMPK antibody.

mouse BV-2 cell line = assay: Expression of inflammatory factors in LPS-treated BV-2 cells by QPCR; assay type: cell-based; conditions: PL201 10, 30, 100 μM, LPS 300 ng/ml, 24 hours
Procedure: Neuroinflammation in the brain of AD is one of the causes of cognitive decline. Microglial cells are the key cells that mediate neuroinflammation. In this example, the inventors have explored whether PL201 has the effect of inhibiting neuroinflammation by detecting the expressions of inflammatory factors on mouse BV-2 cell line.
BV-2 cells were cultured in DMEM, plated to 24 well plates and cultured for 24 hours, then PL201 (0, 10, 30, and 100 μM) and LPS (300 ng/ml) were added. After co-incubation for 24 hours, Trizol was used to extract RNA and the expressions of related inflammatory factors were detected by QPCR.
Mouse BV-2 cells were cultured in DMEM, plated to 24 well plates and cultured for 24 hours, then PL202 (0, 30, 100, and 300 μM) and LPS (300 ng/ml) were added. After co-incubation for 24 hours, Trizol was used to extract RNA and the expressions of related inflammatory factors were detected by QPCR.

MPTP mice model = assay: TH immunohistochemistry of substantia nigra and striatum, MPTP model; assay type: in vivo, mouse; conditions: PL201+MPTP vs NS+MPTP group, Day 7 after MPTP modeling
Procedure: The mice were randomly divided into 4 groups: a group in which the mice was administrated with normal saline (NS), a MPTP model group in which the mice was intragastrical administrated with normal saline (NS+MPTP), a group in which the mice was intragastrical administrated with 50 mg of compound PL201 (PL201), and a MPTP model group in which the mice was intragastrical administrated with compound PL201 (PL201+MPTP).
11 animals were set in the group in which the mice was administrated with normal saline (NS), 14 animals were set in the MPTP model group in which the mice was intragastrical administrated with normal saline (NS+MPTP), 4 animals were set in the group in which the mice was intragastrically administrated with 50 mg of compound PL201 (PL201), 15 animals were set in the MPTP model group in which the mice was intragastrically administrated with the compound PL201 (PL201+MPTP).
The administration started on the day of animal grouping: mice in the NS and the NS+MPTP group were intragastrically administrated with normal saline, and mice in the other two groups were administrated with compound PL201 once a day for 7 consecutive days. From Day 7, mice in the NS and the PL201 group were intraperitoneally injected with 5 ml/kg normal saline, while mice in the NS+MPTP and the PL201+MPTP group were intraperitoneally injected with 25 mg/kg of MPTP once a day for a total of 5 days. […]

For `COc1cc(/C=C/C(=O)OC2OC(C)C(O)C(O)C2O)ccc1O` [PL201, (α-L-rhamnopyranosyl) ferulic acid ester], the “proliferation level of neural stem cells (EdU staining)” value (Human neural stem cells) was “significantly alleviate the inhibitory effect of Aβ”, the “Aβ production (total Aβ in supernatant)” value [1] was “significantly inhibited” and the AMPK phosphorylation level [2] was “reduced the extent of this decline”. The “expression of inflammatory factor IL-1β” value (mouse BV-2 cell line) was “significantly inhibit”, the “expression of inflammatory factor TNFα” value (mouse BV-2 cell line) was “significantly inhibit” and the “level of striatal dopaminergic nerve fibers (TH immunohistochemistry, mean optical density)” value (MPTP mice model) was “significantly increased”. The “number of dopaminergic neurons in substantia nigra (TH positive cells)” value (MPTP mice model) was “significantly increased”.

From patent US11643428B2, “Therapeutic drug for neurodegenerative disease and application thereof” (SHANGHAI PHARMACEUTICALS HOLDING CO., LTD., priority 2018, dated 2023)
